Measured values as given in ChEMBL document CHEMBL1201862, “PubChem BioAssay data set” (2004).
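In this assay, cells in 96-well plates receive the compound at five concentrations for 48 hours. Endpoints are linearly interpolated between the surrounding concentrations. GI50: concentration for 50% inhibition of growth.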 Activity calls are given as the source filed them. No stated cut-off is given here; in the data, active = GI50 up to about 1.1 µM and inactive = higher.

Experiments:
Test in all cases: NCI-60 cell line screen, 48 h
786-0 = system: 786-0
A498 = system: A498
A549 = system: A549
ACHN = system: ACHN
CAKI-1 = system: CAKI-1
CCRF-CEM = system: CCRF-CEM
COLO 205 = system: COLO 205
DLD-1 = system: DLD-1
DMS-114 = system: DMS-114
DMS-273 = system: DMS-273
EKVX = system: EKVX
HCC 2998 = system: HCC 2998
HCT-116 = system: HCT-116
HCT-15 = system: HCT-15
HL-60 = system: HL-60
HOP-18 = system: HOP-18
HOP-62 = system: HOP-62
HOP-92 = system: HOP-92
HT-29 = system: HT-29
IGROV-1 = system: IGROV-1
K562 = system: K562
KM-20L2 = system: KM-20L2
KM12 = system: KM12
LOX IMVI = system: LOX IMVI
LXFL 529 = system: LXFL 529
M14 = system: M14
M19-MEL = system: M19-MEL
MOLT-4 = system: MOLT-4
Malme-3M = system: Malme-3M
NCI-H226 = system: NCI-H226
NCI-H23 = system: NCI-H23
NCI-H460 = system: NCI-H460
NCI-H522 = system: NCI-H522
OVCAR-3 = system: OVCAR-3
OVCAR-4 = system: OVCAR-4
OVCAR-5 = system: OVCAR-5
OVCAR-8 = system: OVCAR-8
RPMI-8226 = system: RPMI-8226
RXF 393 = system: RXF 393
RXF 631 = system: RXF 631
SF-268 = system: SF-268
SF-295 = system: SF-295
SF-539 = system: SF-539
SK-MEL-28 = system: SK-MEL-28
SK-MEL-2 = system: SK-MEL-2
SK-MEL-5 = system: SK-MEL-5
SK-OV-3 = system: SK-OV-3
SN12C = system: SN12C
SNB-19 = system: SNB-19
SNB-75 = system: SNB-75
SNB-78 = system: SNB-78
SW-620 = system: SW-620
TK-10 = system: TK-10
U-251 = system: U-251
UACC-257 = system: UACC-257
UACC-62 = system: UACC-62
UO-31 = system: UO-31
XF498 = system: XF498

**Q.** For `Cc1c(N)nc(C(CC(N)=O)NCC(N)C(N)=O)nc1C(=O)NC(C(=O)NC(C)C(O)C(C)C(=O)NC(C(=O)NCCc1nc(-c2nc(C(=O)NCCCNCCCCN)cs2)cs1)C(C)O)C(OC1OC(CO)C(O)C(O)C1OC1OC(CO)C(O)C(OC(N)=O)C1O)c1c[nH]cn1` (stereo not drawn), which GI50 (786-0) is on record?
**A.** 4.01 µM (inactive)

**Q.** What about the GI50 (A498) of the same molecule?
**A.** > 10 µM (inactive)

**Q.** What about the GI50 (A549) of the same molecule?
**A.** 4.81 µM (inactive)

**Q.** And the GI50 (ACHN)?
**A.** 0.00622 µM (active)

**Q.** What about the GI50 (CAKI-1) of the same molecule?
**A.** 0.00178 µM (active)

**Q.** What about the GI50 (CCRF-CEM) of the same molecule?
**A.** > 10 µM (inactive)

**Q.** And the GI50 (COLO 205)?
**A.** > 10 µM (inactive)

**Q.** And the GI50 (DLD-1)?
**A.** > 10 µM (inactive)

**Q.** And the GI50 (DMS-114)?
**A.** 1.85 µM (inactive)

**Q.** What about the GI50 (DMS-273) of the same molecule?
**A.** 0.957 µM (active)

**Q.** And the GI50 (EKVX)?
**A.** > 10 µM (inactive)

**Q.** And the GI50 (HCC 2998)?
**A.** > 10 µM (inactive)

**Q.** And the GI50 (HCT-116)?
**A.** 1.29 µM (inactive)

**Q.** What about the GI50 (HCT-15) of the same molecule?
**A.** > 5.64 µM

**Q.** And the GI50 (HL-60)?
**A.** > 10 µM (inactive)

**Q.** What about the GI50 (HOP-18) of the same molecule?
**A.** > 10 µM (inactive)

**Q.** And the GI50 (HOP-62)?
**A.** 0.321 µM (active)

**Q.** And the GI50 (HOP-92)?
**A.** 0.0724 µM (active)

**Q.** What about the GI50 (HT-29) of the same molecule?
**A.** > 10 µM (inactive)

**Q.** What about the GI50 (IGROV-1) of the same molecule?
**A.** > 10 µM (inactive)

**Q.** And the GI50 (K562)?
**A.** > 10 µM (inactive)

**Q.** And the GI50 (KM-20L2)?
**A.** > 10 µM (inactive)

**Q.** What about the GI50 (KM12) of the same molecule?
**A.** > 10 µM (inactive)

**Q.** What about the GI50 (LOX IMVI) of the same molecule?
**A.** 0.461 µM (active)

**Q.** What about the GI50 (LXFL 529) of the same molecule?
**A.** > 10 µM (inactive)

**Q.** What about the GI50 (M14) of the same molecule?
**A.** 1.67 µM (inactive)

**Q.** And the GI50 (M19-MEL)?
**A.** > 10 µM (inactive)

**Q.** What about the GI50 (MOLT-4) of the same molecule?
**A.** 2.94 µM (inactive)

**Q.** What about the GI50 (Malme-3M) of the same molecule?
**A.** 2.07 µM (inactive)

**Q.** And the GI50 (NCI-H226)?
**A.** 0.233 µM (active)

**Q.** What about the GI50 (NCI-H23) of the same molecule?
**A.** 1.79 µM (inactive)

**Q.** What about the GI50 (NCI-H460) of the same molecule?
**A.** 0.143 µM (active)

**Q.** What about the GI50 (NCI-H522) of the same molecule?
**A.** 2.1 µM (inactive)

**Q.** And the GI50 (OVCAR-3)?
**A.** > 6.28 µM (inactive)

**Q.** What about the GI50 (OVCAR-4) of the same molecule?
**A.** > 6.46 µM (inactive)

**Q.** What about the GI50 (OVCAR-5) of the same molecule?
**A.** > 10 µM (inactive)

**Q.** And the GI50 (OVCAR-8)?
**A.** > 10 µM (inactive)

**Q.** What about the GI50 (RPMI-8226) of the same molecule?
**A.** > 10 µM (inactive)

**Q.** What about the GI50 (RXF 393) of the same molecule?
**A.** 0.29 µM (active)

**Q.** What about the GI50 (RXF 631) of the same molecule?
**A.** 0.0274 µM (active)

**Q.** And the GI50 (SF-268)?
**A.** 1.18 µM (inactive)

**Q.** And the GI50 (SF-295)?
**A.** 0.0731 µM (active)

**Q.** And the GI50 (SF-539)?
**A.** 0.0655 µM (active)

**Q.** What about the GI50 (SK-MEL-28) of the same molecule?
**A.** > 10 µM (inactive)

**Q.** And the GI50 (SK-MEL-2)?
**A.** > 10 µM (inactive)

**Q.** What about the GI50 (SK-MEL-5) of the same molecule?
**A.** 2.43 µM (inactive)

**Q.** And the GI50 (SK-OV-3)?
**A.** > 10 µM (inactive)

**Q.** What about the GI50 (SN12C) of the same molecule?
**A.** 3.56 µM (inactive)

**Q.** And the GI50 (SNB-19)?
**A.** > 10 µM (inactive)

**Q.** And the GI50 (SNB-75)?
**A.** 0.202 µM (active)

**Q.** And the GI50 (SNB-78)?
**A.** > 10 µM (inactive)

**Q.** What about the GI50 (SW-620) of the same molecule?
**A.** > 10 µM (inactive)

**Q.** And the GI50 (TK-10)?
**A.** > 10 µM (inactive)

**Q.** What about the GI50 (U-251) of the same molecule?
**A.** > 10 µM (inactive)

**Q.** What about the GI50 (UACC-257) of the same molecule?
**A.** > 10 µM (inactive)

**Q.** What about the GI50 (UACC-62) of the same molecule?
**A.** 2.71 µM (inactive)

**Q.** And the GI50 (UO-31)?
**A.** 2.36 µM (inactive)

**Q.** What about the GI50 (XF498) of the same molecule?
**A.** 0.0413 µM (active)
